The target of experiment [1] is T1, Polyunsaturated fatty acid 5-lipoxygenase (Homo sapiens, UniProt P09917).
T1 sequence (P09917 whole entry): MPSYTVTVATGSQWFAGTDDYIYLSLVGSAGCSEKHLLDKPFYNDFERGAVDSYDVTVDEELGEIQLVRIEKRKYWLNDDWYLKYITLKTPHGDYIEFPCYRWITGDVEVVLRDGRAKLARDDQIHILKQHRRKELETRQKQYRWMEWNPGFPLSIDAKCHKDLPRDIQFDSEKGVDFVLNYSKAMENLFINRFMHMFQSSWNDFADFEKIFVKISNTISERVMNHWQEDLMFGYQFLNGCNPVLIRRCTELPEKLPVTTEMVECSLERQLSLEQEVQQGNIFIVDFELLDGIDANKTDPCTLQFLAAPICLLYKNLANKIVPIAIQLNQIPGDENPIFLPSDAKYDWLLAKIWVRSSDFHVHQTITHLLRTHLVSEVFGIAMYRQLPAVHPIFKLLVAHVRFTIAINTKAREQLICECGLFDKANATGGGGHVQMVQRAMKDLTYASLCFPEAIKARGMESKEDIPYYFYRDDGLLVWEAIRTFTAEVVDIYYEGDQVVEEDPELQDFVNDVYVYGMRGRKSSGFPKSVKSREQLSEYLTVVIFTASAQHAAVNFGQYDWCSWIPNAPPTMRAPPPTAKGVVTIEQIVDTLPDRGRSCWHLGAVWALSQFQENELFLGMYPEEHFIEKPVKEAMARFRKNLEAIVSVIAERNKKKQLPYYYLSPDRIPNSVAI
The experiment can be described thus: Inhibition of 5-LO in human peripheral blood neutrophils using arachidonic acid as substrate preincubated for 15 mins followed by substrate addition measured after 10 mins by RP-HPLC analysis.

Experiment [2] has as its target T1, Polyunsaturated fatty acid 5-lipoxygenase. The experiment in a line: Inhibition of recombinant human 5-LO expressed in Escherichia coli BL21 using arachidonic acid as substrate preincubated for 15 mins followed by substrate addition measured after 10 mins by RP-HPLC analysis.
The target of experiment [3] is T2, Prostaglandin E synthase (Homo sapiens, UniProt O14684).
T2 sequence (O14684 whole entry): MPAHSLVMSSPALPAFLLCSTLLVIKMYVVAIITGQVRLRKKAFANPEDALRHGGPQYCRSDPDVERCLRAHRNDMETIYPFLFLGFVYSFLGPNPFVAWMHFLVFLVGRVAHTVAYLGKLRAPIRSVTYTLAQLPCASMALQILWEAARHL
The experiment in a line: Inhibition of mPGES-1 in microsomal membranes isolated from IL-1beta-stimulated human A549 cells preincubated for 15 mins followed by PGH2 addition measured after 1 mins by RP-HPLC analysis. Format: cell membranes.

Experiment [4] has as its system Mus musculus. The experiment in a line: Anti-inflammatory activity in carrageenan-induced ICR mouse model of inflammation assessed as reduction in paw edema at 4 mg/kg, ip administered 30 mins prior to carrageenan challenge measured at 2 to 6 hrs post carrageenan challenge by plethysmometric method relative to control. Format: functional. On the set-up: scale not given: the % may be the effect or the level left.

In experiment [5] the test system is Mus musculus. The experiment in a line: Anti-inflammatory activity in carrageenan-induced ICR mouse model of inflammation assessed as reduction in paw edema at 4 mg/kg, ip administered 30 mins prior to carrageenan challenge measured at 4 hrs post carrageenan challenge by plethysmometric method relative to control. Format: functional. Details: scale not given: the % may be the effect or the level left.

Experiment [6] has as its target T3, Prostaglandin E synthase (Homo sapiens) (UniProt O14684).
T3 sequence (whole entry): T2 sequence (O14684 whole entry)
The experiment can be described thus: Inhibition of mPGES-1 in microsomal membranes isolated from IL-1beta-stimulated human A549 cells assessed as residual activity preincubated for 15 mins followed by PGH2 addition measured after 1 mins by RP-HPLC analysis relative to control. Format: cell membranes.

Experiment [7] has as its system Mus musculus. The experiment can be described thus: Anti-inflammatory activity in carrageenan-induced ICR mouse model of inflammation assessed as reduction in paw edema at 20 mg/kg, ip administered 30 mins prior to carrageenan challenge measured at 2 to 6 hrs post carrageenan challenge by plethysmometric method relative to control. Details: scale not given: the % may be the effect or the level left. Format: functional.

Data on 29 compounds can be found in ChEMBL document CHEMBL4270559, “Structural insight into the optimization of ethyl 5-hydroxybenzo[g]indol-3-carboxylates and their bioisosteric analogues as 5-LO/m-PGES-1 dual inhibitors able to suppress inflammation” (Eur J Med Chem, 2018).

In the case of `CCOC(=O)c1c(-c2ccccc2Cl)oc2c1cc(O)c1ccccc12`, the IC50 (usually the midpoint of a concentration-inhibition curve) in experiment [1] was determined as 1860 nM; in experiment [2], 370 nM.

With `CCOC(=O)c1c(-c2ccc(Br)cc2F)oc2c1cc(O)c1ccccc12`, the IC50 in experiment [1] was 2320 nM; in experiment [2] it was 1060 nM.

On to `CCOC(=O)c1c(Cc2ccc(Cl)c(Cl)c2)[nH]c2c1cc(O)c1ccccc12`, for which the 50% inhibitory concentration (IC50) in experiment [1] was found to be 45 nM; in experiment [2] it was 54 nM; in experiment [3] it was 4200 nM. In addition, the Activity in experiment [4] was 73%.

On to `CCOC(=O)c1c(-c2cccc(C)c2)[nH]c2c1cc(O)c1ccccc12`, for which the values for the IC50 in experiment [1], in experiment [2] and in experiment [3] were 120 nM, 140 nM and 2560 nM, respectively.

The compound `CCOC(=O)c1c(-c2ccc(Cl)cc2)[nH]c2c1cc(O)c1ccccc12` yielded a 50% inhibitory concentration (IC50) in experiment [3] of 3400 nM.

For `CCOC(=O)c1c(-c2ccc(Cl)c(Cl)c2)[nH]c2c1cc(O)c1ccccc12`, the IC50 in experiment [1] is 130 nM; in experiment [2], 130 nM; in experiment [3] it was 480 nM. Moreover, in experiment [5], the Activity was 47.3%.

In the case of `CCOC(=O)c1c(-c2cccc(Br)c2)oc2c1cc(O)c1ccccc12`, the 50% inhibitory concentration (IC50) in experiment [1] was 1640 nM; in experiment [2] it was 860 nM.

Regarding `CCOC(=O)c1c(-c2cc(Br)ccc2F)oc2c1cc(O)c1ccccc12`, the IC50 in experiment [1] came to 4490 nM; in experiment [2] it was 2030 nM.

Take `CCOC(=O)c1c(Cc2c(Cl)cccc2Cl)[nH]c2c1cc(O)c1ccccc12`: the half-inhibitory concentration (IC50) in experiment [1] turned out to be 1160 nM; in experiment [2] it was 782 nM. In addition, the Activity in experiment [6] stood at 78.1%.

As to `CC(c1cc2ccccc2s1)N(O)C(N)=O` (centres undefined) [ZILEUTON], the Activity in experiment [7] came to 38.2%.

As to `CCOC(=O)c1c(Cc2c(C)cc(C)cc2C)[nH]c2c1cc(O)c1ccccc12`, the results for the IC50 in experiment [1], in experiment [2] and in experiment [3] were 130 nM, 298 nM and 58800 nM, respectively.

For the compound `CCOC(=O)c1c(-c2ccccc2OC)[nH]c2c1cc(O)c1ccccc12`, the IC50 in experiment [1] came out at 210 nM; in experiment [2], 190 nM; in experiment [3], 8600 nM.

As to `CCOC(=O)c1c(-c2ccccc2Br)[nH]c2c1cc(O)c1ccccc12`, the IC50 was 200 nM in experiment [1], 160 nM in experiment [2] and 2540 nM in experiment [3].

For the compound `CCOC(=O)c1c(-c2ccc(Cl)cc2)oc2c1cc(O)c1ccccc12`, the IC50 was determined as 3740 nM in experiment [1] and 130 nM in experiment [2].

`CCOC(=O)c1c(-c2ccc(Cl)c(Cl)c2)oc2c1cc(O)c1ccccc12`: the IC50 in experiment [1] came out at 1240 nM; in experiment [2], 1700 nM.

Consider `CCOC(=O)c1c(-c2cccc(Br)c2)[nH]c2c1cc(O)c1ccccc12`, for which the IC50 in experiment [1] was 210 nM; in experiment [2], 130 nM; in experiment [3] it was 1190 nM.

Regarding `CCOC(=O)c1c(-c2ccccc2Br)oc2c1cc(O)c1ccccc12`, the IC50 is 790 nM in experiment [1] and 160 nM in experiment [2].

For `CCOC(=O)c1c(-c2ccccc2Cl)[nH]c2c1cc(O)c1ccccc12`, the IC50 in experiment [1] amounted to 240 nM; in experiment [2], 130 nM.

As to `CCOC(=O)c1c(-c2cccc(Cl)c2)oc2c1cc(O)c1ccccc12`, the values for the IC50 in experiment [1] and in experiment [2] were 3920 nM and 460 nM, respectively.

`CCOC(=O)c1c(-c2cc(Br)ccc2F)[nH]c2c1cc(O)c1ccccc12`: the IC50 in experiment [1] was 230 nM; in experiment [2], 110 nM; in experiment [3], 2130 nM. Also, the Activity in experiment [5] is reported as 73.95%.

Consider `CCOC(=O)c1c(Cc2c(F)cccc2F)[nH]c2c1cc(O)c1ccccc12`, for which the values for the IC50 in experiment [1], in experiment [2] and in experiment [3] were 94 nM, 169 nM and 4200 nM, respectively. Also, the Activity in experiment [4] is reported as 81%.

Turning to `CCOC(=O)c1c(Cc2ccccc2Cl)[nH]c2c1cc(O)c1ccccc12`, it took 960 nM to reach half-maximal inhibition in experiment [3] (IC50).

For `CCOC(=O)c1c(C)[nH]c2c1cc(O)c1ccccc12`, the IC50 was found to be 420 nM in experiment [1] and 480 nM in experiment [2].

In the case of `CCOC(=O)c1c(-c2ccccc2C)[nH]c2c1cc(O)c1ccccc12`, the IC50 in experiment [1] amounted to 420 nM; in experiment [2], 110 nM; in experiment [3] it was 12700 nM.

With `CCOC(=O)c1c(-c2ccc(Br)cc2F)[nH]c2c1cc(O)c1ccccc12`, the IC50 in experiment [1] is 860 nM; in experiment [2], 270 nM; in experiment [3] it was 3430 nM. Also, the Activity in experiment [5] is listed as 69.35%.

`CCOC(=O)c1c(-c2cc(C)cc(C)c2)[nH]c2c1cc(O)c1ccccc12`: the IC50 in experiment [1] was 300 nM; in experiment [2] it was 120 nM; in experiment [3] it was 7060 nM.

For `CCOC(=O)c1c(-c2ccccc2F)[nH]c2c1cc(O)c1ccccc12`, the IC50 stood at 150 nM in experiment [1] and 100 nM in experiment [2]. For the same compound, in experiment [6], the Activity is 50.6%.

For the compound `CCOC(=O)c1c(-c2ccccc2F)oc2c1cc(O)c1ccccc12`, the figures for the IC50 in experiment [1] and in experiment [2] were 670 nM and 370 nM, respectively.

`CCOC(=O)c1c(-c2ccccc2OC)oc2c1cc(O)c1ccccc12`: the results for the IC50 in experiment [1] and in experiment [2] were 1360 nM and 220 nM, respectively.
